# PubChem BioAssay (NCI)
# “And” between values parts separate entries of the source, which are not always exact repeats. Identical values can stand only once.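 Tested at 5 concentrations; 48 h exposure; 96-well plates; endpoints linearly interpolated, else capped at highest concentration. GI50 = concentration required for 50% inhibition of growth. TGI marks complete inhibition of growth.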
# Experiments:
# Experiment in all cases: NCI anticancer screen, dose series, 48 h
# [1] = test system: SK-MEL-2 melanoma
# [2] = test system: UACC-257 melanoma
# [3] = test system: SK-OV-3 ovarian
# [4] = test system: UACC-62 melanoma
# [5] = test system: A549 NSCLC
# [6] = test system: MDA-MB-231 breast
# [7] = test system: MDA-MB-435
# [8] = test system: DU-145 prostate
# [9] = test system: 786-0 renal
# [10] = test system: OVCAR-5 ovarian
Structure (SMILES),GI50 [1],TGI [1],GI50 [2],TGI [2],TGI [3],GI50 [4],TGI [4],GI50 [5],TGI [5],GI50 [6],TGI [6],GI50 [7],TGI [7],GI50 [8],TGI [8],GI50 [9],TGI [9],GI50 [10],GI50 [3],TGI [10]
O=C1/C(=C\c2ccc([N+](=O)[O-])cc2)CS(=O)(=O)C/C1=C/c1ccc([N+](=O)[O-])cc1,0.366 µM,3.17 µM,0.931 µM,5.33 µM,15.5 µM,1.84 µM,0.519 µM and 4.12 µM,0.35 µM,10.8 µM,0.36 µM,0.533 µM,0.208 µM,0.808 µM and 1.5 µM,0.87 µM,12.4 µM,0.133 µM,0.356 µM and 0.359 µM,0.126 µM,–,–
O=c1c(-c2ccc3c(c2)OCO3)coc2c(CO)c(O)ccc12,2.25 µM,5.87 µM,2.59 µM,7.46 µM,6.39 µM,1.66 µM,3.59 µM,6.8 µM,30.9 µM,2.01 µM,5.09 µM,4.78 µM,19.5 µM,2.41 µM,7.06 µM,1.97 µM,4.6 µM,3.3 µM,2.41 µM,10.5 µM
COc1ccc(-c2nnc(Nc3nc(O)c(C4=c5cc(OC(F)(F)F)ccc5=NC4=O)s3)o2)cc1,20.3 µM,39.3 µM,13.2 µM,35.9 µM,44 µM,15.1 µM,29.5 µM,17.2 µM,81.4 µM,13.9 µM,30.3 µM,7.46 µM,> 100 µM,23.4 µM,87.1 µM,11.2 µM,24.3 µM,18.2 µM,17.4 µM,43.6 µM
Cc1ccc(C2NC(=S)N3C(c4ccc(C)cc4)NC(=S)N23)cc1 (stereo not drawn),3.4 µM,12.1 µM,10.3 µM,22.6 µM,15.5 µM,1.88 µM,11.7 µM,5.82 µM,20.1 µM,9.16 µM,24 µM,0.666 µM,4.14 µM,3.62 µM,13.6 µM,5.82 µM,19.9 µM,14.7 µM,4.77 µM,28.2 µM
O=C1c2ccccc2-c2c1c1c(O)cccc1n2CCCc1ccccc1,18.5 µM,87.3 µM,19.7 µM,50.8 µM,> 100 µM,22.7 µM,> 100 µM,9.61 µM,> 100 µM,70 µM,> 100 µM,16.7 µM,> 100 µM,28.1 µM,> 100 µM,21 µM,99.3 µM,64 µM,84.3 µM,> 100 µM
COc1ccccc1N(C(C)=O)C1=C(Cl)C(=O)c2ccccc2C1=O,1.89 µM,4.57 µM,2.14 µM,4.39 µM,7.33 µM,0.502 µM,2.92 µM,3.43 µM,13.5 µM,2.03 µM,6.23 µM,1.9 µM,4.55 µM,3.46 µM,12 µM,3.15 µM,12 µM,2.93 µM,2.46 µM,11.5 µM
CCOC(=O)c1c(C(F)(F)F)n([O-])c2ccc(Cl)cc2[n+]1=O,1.94 µM,4.34 µM,2.19 µM,4.7 µM,16.1 µM,1.72 µM,3.71 µM,4.14 µM,17.1 µM,2.01 µM,4.45 µM,1.68 µM,3.85 µM,1.93 µM,3.5 µM,2.11 µM,3.71 µM,1.76 µM,4.14 µM,3.32 µM
Oc1[nH]c2ccc(Cl)cc2c1/C=c1/ccc2c(c1)N=C(c1ccc(C(F)(F)F)cc1)N=2,1.97 µM,3.79 µM,2.08 µM,4.93 µM,13.9 µM,1.71 µM,4.06 µM,3 µM,10.8 µM,1.75 µM,3.63 µM,1.9 µM,4.7 µM,3.12 µM,10.4 µM,1.75 µM,3.31 µM,3.1 µM,4.19 µM,12.3 µM
Nc1ncnc2c1nc(N)n2C1OC(CO)C(O)C1O (stereo not drawn),0.72 µM,2.92 µM,0.229 µM,0.857 µM,3.45 µM,0.251 µM,1.2 µM,0.331 µM,2.02 µM,0.518 µM,4.86 µM,0.153 µM,0.773 µM,0.401 µM,2.09 µM,1.55 µM,3.71 µM,0.221 µM,0.52 µM,15.4 µM
Cc1cc(NS(=O)(=O)c2ccc(NC(=O)COc3ccc(-c4cc5ccccc5[nH]4)cc3)cc2)no1,1.86 µM,3.76 µM,2.07 µM,6.27 µM,3.55 µM,1.53 µM,3.26 µM,2.18 µM,6.39 µM,1.66 µM,4.37 µM,1.38 µM,3.13 µM,2.22 µM,5.18 µM,1.93 µM,3.65 µM,2.26 µM,1.85 µM,5.68 µM
Cc1ccc2nc3sc(=O)sc3nc2c1,–,29 µM,–,32.1 µM,34.6 µM,–,32.5 µM,–,29.6 µM,–,32.1 µM,–,29.8 µM,–,> 100 µM,–,28.8 µM,–,–,30.8 µM
CC(=O)Nc1cc(C(c2ccccc2)c2ccccc2)cc(C(c2ccccc2)c2ccccc2)c1C,5.18 µM,> 100 µM,8.72 µM,> 100 µM,> 100 µM,5.86 µM,> 100 µM,4.95 µM,> 100 µM,4.21 µM,> 100 µM,6.81 µM,> 100 µM,> 100 µM,> 100 µM,> 100 µM,> 100 µM,> 100 µM,> 100 µM,> 100 µM
O=C1c2cccc3cccc(c23)C(=O)N1CC#Cc1ccc2c3c(cccc13)C(=O)N(CCN1CCNCC1)C2=O,18.5 µM,42 µM,18.5 µM,38.1 µM,62.6 µM,1.88 µM,4.44 µM,3.19 µM,12 µM,1.85 µM,3.67 µM,1.86 µM,3.47 µM,2.06 µM,4.12 µM,1.86 µM,3.53 µM,2.82 µM,25.7 µM,10.3 µM
